Measured values reported in patent publication US10624340B2, “Chemical combinations for attracting Vespidae” (priority 2017, dated 2020).
Several values for one entry are separate records, joined by “and”; a condition that tells them apart may be missing. Identical values can stand only once.

Columns and labels:
Type in all cases: in vivo, V. pensylvanica
Vespidae [1] = assay: Box attraction test of single test agents (Example 1); settings: 500 μL test agent in white box, 15 min tests, two tests, San Mateo County, July 2016; acetic acid 5%, citric acid 750 mM, ethanol 40%
Vespidae [2] = assay: Box attraction test of heptyl butyrate with citric, malic or tartaric acid (Experiment 3); settings: 500 μL of each agent, white box, 15 min tests, three tests, July 2017, acid alone, heptyl butyrate alone and combination run together, * P < 0.05 vs heptyl butyrate alone
Procedure: Materials and Methods. The third experiment evaluated combinations of heptyl butyrate and citric acid, malic acid, and tartaric acid versus heptyl butyrate alone as baits for Vespidae.
Attraction Measurements. Testing the efficacy of attraction of the chemicals was conducted using an apparatus that allows visualization of the Vespidae to an area with the attractant. This can be prepared in a variety of ways including the use of white 4-sided boxes in which the different attractants are placed at the bottom of the box. Attraction of the Vespidae to the boxes is visualized and Vespidae are counted when they fly into the plane of the box toward the attractant. Each experiment lasted 15 minutes and every 5 minutes, the boxes would be cleared of Vespidae and rotated counterclockwise to eliminate any possible effect of direction. Each experiment was conducted three times over the course of one day, for a total of 9 replicates per test.
Boxes were prepared using white paper (one foot square) and applying them to equal sizes of cardboard to create a 4-sided box with the white paper in the inside of the box. Boxes were placed in a triangle pattern on the ground and spaced equally three to four feet apart. Disposable plates with clipped-on absorbent material in them were placed in the bottom on the boxes. Each tested combination of attractants was poured onto the absorbent material on the plate and placed into a testing box.
Chemical Treatments. Four chemical treatments were selected and combined with heptyl butyrate and compared to heptyl butyrate alone as baits for Vespidae. Chemicals combined with heptyl butyrate included citric acid solution (5 grams in 50 mLs of water), malic acid (6 grams in 50 mLs of water), and tartaric acid (7 grams in 50 mLs of water). Experiment 3 used 500 μL of each test agent combined for a total of 1000 μL total volume in each test. The heptyl butyrate test used 500 μL of water and 500 µL of heptyl butyrate.

Vespidae [3] = assay: 14-day trapping test in RESCUE Reusable Yellowjacket traps (Experiment 4); settings: 2 mL heptyl butyrate with or without 2 mL acid solution in trap, hung 14 days, counted day 15
Procedure: Materials and Methods. The fourth experiment evaluated combinations of heptyl butyrate and citric acid, malic acid, and tartaric acid versus heptyl butyrate alone as baits for Vespidae. Heptyl butyrate was included for comparison because of its known attractiveness to V. pensylvanica (Davis et al., 1969, Supra).
Attraction Measurements. Testing the efficacy of attraction of the chemicals was conducted using four standard commercially-available RESCUE Reusable Yellowjacket® traps filled with the various test agents. In this experiment, the traps were set and hung 5-6 feet off of the ground with all traps separated by 3-4 feet from one another. Chemical treatments were added to the attractant chambers (cotton absorbant material) of the trap and hung for 14 days. Measurements of the number of trapped Vespidae were made on day 15.
Chemical Treatments. Four chemical treatments were selected and combined with heptyl butyrate and compared to heptyl butyrate alone as baits for Vespidae. Chemicals combined with heptyl butyrate included citric acid solution (5 grams in 50 mLs of water), malic acid (6 grams in 50 mLs of water), and tartaric acid (7 grams in 50 mLs of water). Experiment 4 used 2 mL of the standard attractant (heptyl butyrate) as is found in the RESCUE reusable yellowjacket traps for the heptyl butyrate alone test. […]

Structure (SMILES): CC(=O)O [Acetic Acid, acetic acid]
- Total Number of Vespidae Attracted to Single Test Agents, Sum Test 1 + 2 (Vespidae [1]): 2

Structure (SMILES): CCCC(=O)O [Butyric Acid, butyric acid]
- Total Number of Vespidae Attracted to Single Test Agents, Sum Test 1 + 2 (Vespidae [1]): 5

Structure (SMILES): O=C(O)CC(O)(CC(=O)O)C(=O)O [Citric Acid, citric acid]
- Total Number of Vespidae Attracted to Single Test Agents, Sum Test 1 + 2 (Vespidae [1]): 10
- Total Number of Vespidae Attracted to Different Test Conditions (Vespidae [2]): 22

Structure (SMILES): CCO [Ethanol, ethanol]
- Total Number of Vespidae Attracted to Single Test Agents, Sum Test 1 + 2 (Vespidae [1]): 2

Structure (SMILES): CCCCCCCOC(=O)CCC [Heptyl Butyrate, heptyl butyrate]
- Total Number of Vespidae Attracted to Single Test Agents, Sum Test 1 + 2 (Vespidae [1]): 343
- Total Number of V. Pensylvanica (Vespidae) Trapped During a 14-Day Test (Vespidae [3]): 91
- Total Number of Vespidae Attracted to Different Test Conditions (Vespidae [2]): 355 and 590 and 477
- Total Number of Vespidae Attracted to Different Test Conditions (Vespidae [2]; listed as heptyl butyrate): 477 and 355 and 590

Structure (SMILES): CC(C)CO [Isobutanol, isobutanol]
- Total Number of Vespidae Attracted to Single Test Agents, Sum Test 1 + 2 (Vespidae [1]): 21

Structure (SMILES): CC(O)C(=O)O (stereo not shown) [Lactic Acid, lactic acid]
- Total Number of Vespidae Attracted to Single Test Agents, Sum Test 1 + 2 (Vespidae [1]): 5

Structure (SMILES): O=C(O)CC(O)C(=O)O (stereo not shown) [Malic Acid, malic acid]
- Total Number of Vespidae Attracted to Different Test Conditions (Vespidae [2]): 19

Structure (SMILES): O=C(O)C(O)C(O)C(=O)O (stereo not shown) [Tartaric Acid, tartaric acid]
- Total Number of Vespidae Attracted to Different Test Conditions (Vespidae [2]): 15
